Measured values reported in patent US20250109126A1, “DIHYDRO-OXAZOL DERIVATIVE COMPOUNDS” (AC IMMUNE SA, priority 2021, published 2025).
Where two headings read alike, the source gives them in different places.

System: NLRP3 inflammasome pathway
Experiment: NLRP3 inflammasome pathway activation assay, IL-1β release (HTRF) in human monocyte-like cells stimulated with MSU or Nigericin
Assay type: cell-based
Description: The following assays were used to determine the inhibitory activity of test compounds on the NLRP3 inflammasome pathway using common stimuli Nigericin (Invivogen) or monosodium urate crystals (MSU) (Invivogen).
Human monocyte-like cells were cultured in RPMI-1640 Glutamax medium supplemented with 10% heat inactivated FCS and 50 U/ml penicillin-streptomycin (Life Technologies).
Human monocyte-like cells were seeded at 75000 per well in a 96-well plate and were differentiated overnight into macrophages with 10 ng/ml PMA (Phorbol Myristate Acetate). The following day, medium containing 10 ng/ml LPS (Lipopolysaccharide) were added. After 3 hours of LPS priming, concentrations of test compound in the range from 100 μM to 6 nM were added 30 min prior to NLRP3 inflammasome pathway stimulation with Nigericin 3.75 μM or MSU 200 μg/ml for 3 h.
For IL-1β quantification, supernatants were analyzed using HTRF kit according to the manufacturer's instructions (Cisbio 62HIL1BPEH). Briefly, in a 384-well ProxiPlate™ microplate, 8 μl of sample was mixed, with 4 μl of Anti-IL1β Cryptate antibody (40×) and Anti-IL1β XL antibody (40×). Then, incubated overnight at RT. Reading was done using an EnVision Reader (PerkinElmer).
IC50 (concentration corresponding to 50% inhibition) were determined using GraphPad Prism 8.

[1] = Homo sapiens, 3 h, IL-1β release, PMA-differentiated, LPS-primed cells, MSU 200 μg/ml for 3 h, read-out: IC50 Human monocyte-like cells MSU
[2] = Homo sapiens, 3 h, read-out: IC50 Human monocyte-like cells Nigericin (μM)
[3] = IL-1β release, PMA-differentiated, LPS-primed cells, MSU 200 μg/ml for 3 h, read-out: IC50 Human monocyte-like cells MSU

Compound | IC50 [1] | other results
CCOC(=O)C1(c2ccon2)CN=C(Nc2c3c(c(C(F)(F)F)c4c2CCC4)CCC3)O1 (racemic) [Example 21, ethyl 5-(isoxazol-3-yl)-2-((8-(trifluoromethyl)-1,2,3,5,6,7-hexahydro-s-indacen-4-yl)amino)-4,5-dihydrooxazole-5-carboxylate] | 1 to 10 µM | IC50 [2]: < 1 µM
CCOC(=O)C1(c2ccon2)CN=C(Nc2c(-c3ccnc(OC)c3)cc(F)cc2C(C)C)O1 (single isomer, unassigned) [Example 3, ethyl 2-{[4-fluoro-2-(2-methoxypyridin-4-yl)-6-(propan-2-yl)phenyl]amino}-5-(1,2-oxazol-3-yl)-4,5-dihydro-1,3-oxazole-5-carboxylate] | – | IC50 [3]: 1 to 10 µM
COc1cc(-c2ccc3c(c2NC2=NCC(C(=O)O)(c4ccon4)O2)CCO3)ccn1 (stereo not shown) [Example 24, 5-(isoxazol-3-yl)-2-((5-(2-methoxypyridin-4-yl)-2,3-dihydrobenzofuran-4-yl)amino)-4,5-dihydrooxazole-5-carboxylic acid] | 1 to 10 µM | –
Cc1c2c(c(NC3=NCC(C(=O)O)(c4ccon4)O3)c3c1CCC3)CCC2 (stereo not shown) [Example 14, 2-[(8-methyl-1,2,3,5,6,7-hexahydro-s-indacen-4-yl)amino]-5-(1,2-oxazol-3-yl)-4,5-dihydro-1,3-oxazole-5-carboxylic acid] | 1 to 10 µM | –
Cc1c2c(c(NC3=NCC(C(=O)O)(c4ccon4)O3)c3c1CCC3)CCC2 (single isomer, unassigned) [Example 15, 2-[(8-methyl-1,2,3,5,6,7-hexahydro-s-indacen-4-yl)amino]-5-(1,2-oxazol-3-yl)-4,5-dihydro-1,3-oxazole-5-carboxylic acid] | 1 to 10 µM | –
CCOC(=O)C1(c2ccon2)CN=C(Nc2c3c(cc(C)c2-c2ccnc(OC)c2)CCC3)O1 (racemic) [Example 20, ethyl 5-(isoxazol-3-yl)-2-((5-(2-methoxypyridin-4-yl)-6-methyl-2,3-dihydro-1H-inden-4-yl)amino)-4,5-dihydrooxazole-5-carboxylate] | < 1 µM | –
COc1cc(-c2c(C)cc3c(c2NC2=NCC(C(=O)O)(c4ccon4)O2)CCC3)ccn1 (stereo not shown) [Example 27, 5-(isoxazol-3-yl)-2-((5-(2-methoxypyridin-4-yl)-6-methyl-2,3-dihydro-1H-inden-4-yl)amino)-4,5-dihydrooxazole-5-carboxylic acid] | < 1 µM | IC50 [2]: 1 to 10 µM
COc1cc(-c2ccc3c(c2NC2=NCC(C(=O)O)(c4ccon4)O2)CCC3)ccn1 (stereo not shown) [Example 13, 2-{[5-(2-methoxypyridin-4-yl)-2,3-dihydro-1H-inden-4-yl]amino}-5-(1,2-oxazol-3-yl)-4,5-dihydro-1,3-oxazole-5-carboxylic acid] | < 1 µM | IC50 [2]: 10 to 30 µM
CCOC(=O)C1(c2ccon2)CN=C(Nc2c3c(c(-c4ccccc4)c4c2CCC4)CCC3)O1 (single isomer, unassigned) [Example 9, ethyl 5-(isoxazol-3-yl)-2-((8-phenyl-1,2,3,5,6,7-hexahydro-s-indacen-4-yl)amino)-4,5-dihydrooxazole-5-carboxylate] | – | IC50 [2]: 1 to 10 µM; IC50 [3]: < 1 µM
COc1cc(-c2cc(F)cc(C(C)C)c2NC2=NCC(C(=O)O)(c3ccon3)O2)ccn1 (single isomer, unassigned) [Example 11, 2-{[4-fluoro-2-(2-methoxypyridin-4-yl)-6-(propan-2-yl)phenyl]amino}-5-(1,2-oxazol-3-yl)-4,5-dihydro-1,3-oxazole-5-carboxylic acid] | < 1 µM | IC50 [2]: 1 to 10 µM
CCOC(=O)C1(c2ccon2)CN=C(Nc2c(-c3ccnc(OC)c3)cc(F)c3c2CCC3)O1 (racemic) [Example 19, ethyl 2-((7-fluoro-5-(2-methoxypyridin-4-yl)-2,3-dihydro-1H-inden-4-yl)amino)-5-(isoxazol-3-yl)-4,5-dihydrooxazole-5-carboxylate] | < 1 µM | –
CCOC(=O)C1(c2ccon2)CN=C(Nc2c3c(c(C)c4c2CCC4)CCC3)O1 (racemic) [Example 7, ethyl 5-(isoxazol-3-yl)-2-((8-methyl-1,2,3,5,6,7-hexahydro-s-indacen-4-yl)amino)-4,5-dihydrooxazole-5-carboxylate] | < 1 µM | –
CCOC(=O)C1(c2ccon2)CN=C(Nc2c(C(C)C)cc(F)cc2C(C)C)O1 (racemic) [Example 23, ethyl 2-((4-fluoro-2,6-diisopropylphenyl)amino)-5-(isoxazol-3-yl)-4,5-dihydrooxazole-5-carboxylate] | 1 to 10 µM | –
CCOC(=O)C1(c2ccon2)CN=C(Nc2c(-c3ccncc3)cc(F)cc2C(C)C)O1 (racemic) [Example 18, ethyl 2-((4-fluoro-2-isopropyl-6-(pyridin-4-yl)phenyl)amino)-5-(isoxazol-3-yl)-4,5-dihydrooxazole-5-carboxylate] | < 1 µM | –
COc1cc(-c2ccc3c(c2NC2=NCC(C(=O)O)(c4ccon4)O2)CCC3)ccn1 (racemic) [Example 12, 2-{[5-(2-methoxypyridin-4-yl)-2,3-dihydro-1H-inden-4-yl]amino}-5-(1,2-oxazol-3-yl)-4,5-dihydro-1,3-oxazole-5-carboxylic acid] | 1 to 10 µM | –
CCOC(=O)C1(c2ccon2)CN=C(Nc2c(-c3ccnc(OC)c3)ccc3c2CCO3)O1 (racemic) [Example 17, ethyl 5-(isoxazol-3-yl)-2-((5-(2-methoxypyridin-4-yl)-2,3-dihydrobenzofuran-4-yl)amino)-4,5-dihydrooxazole-5-carboxylate] | < 1 µM | –
CC(C)c1cc(F)cc(-c2ccncc2)c1NC1=NCC(C(=O)O)(c2ccon2)O1 (stereo not shown) [Example 25, 2-((4-fluoro-2-isopropyl-6-(pyridin-4-yl)phenyl)amino)-5-(isoxazol-3-yl)-4,5-dihydrooxazole-5-carboxylic acid] | 1 to 10 µM | –
COc1cc(-c2cc(F)cc(C(C)C)c2NC2=NCC(C(=O)O)(c3ccon3)O2)ccn1 (stereo not shown) [Example 10, 2-{[4-fluoro-2-(2-methoxypyridin-4-yl)-6-(propan-2-yl)phenyl]amino}-5-(1,2-oxazol-3-yl)-4,5-dihydro-1,3-oxazole-5-carboxylic acid] | < 1 µM | –
O=C(O)C1(c2cnoc2)CN=C(Nc2c3c(c(-c4ccccc4)c4c2CCC4)CCC3)O1 (stereo not shown) [Example 28, lithium 5-(isoxazol-4-yl)-2-((8-phenyl-1,2,3,5,6,7-hexahydro-s-indacen-4-yl)amino)-4,5-dihydrooxazole-5-carboxylate] | – | IC50 (Homo sapiens, 3 h, read-out: IC50 Human monocyte-like cells MSU (μM)): 10 to 30 µM; IC50 [2]: 10 to 30 µM
CCOC(=O)C1(c2ccon2)CN=C(Nc2c(-c3ccnc(OC)c3)cc(F)cc2C(C)C)O1 (single isomer, unassigned) [Example 2, ethyl 2-{[4-fluoro-2-(2-methoxypyridin-4-yl)-6-(propan-2-yl)phenyl]amino}-5-(1,2-oxazol-3-yl)-4,5-dihydro-1,3-oxazole-5-carboxylate] | < 1 µM | –
CCOC(=O)C1(c2ccon2)CN=C(Nc2c(-c3ccnc(OC)c3)cc(F)cc2C(C)C)O1 (racemic) [Example 1, ethyl 2-{[4-fluoro-2-(2-methoxypyridin-4-yl)-6-(propan-2-yl)phenyl]amino}-5-(1,2-oxazol-3-yl)-4,5-dihydro-1,3-oxazole-5-carboxylate] | < 1 µM | –
CCOC(=O)C1(c2ccon2)CN=C(Nc2c3c(c(-c4ccccc4)c4c2CCC4)CCC3)O1 (single isomer, unassigned) [Example 16, ethyl 5-(isoxazol-3-yl)-2-((8-phenyl-1,2,3,5,6,7-hexahydro-s-indacen-4-yl)amino)-4,5-dihydrooxazole-5-carboxylate] | – | IC50 [3]: 10 to 30 µM; IC50 (read-out: IC50 Human monocyte-like cells Nigericin, IL-1β release, PMA-differentiated, LPS-primed cells, Nigericin 3.75 μM for 3 h): 1 to 10 µM
CCOC(=O)C1(c2ccon2)CN=C(Nc2c(-c3ccnc(OC)c3)ccc3c2CCC3)O1 (racemic) [Example 4, ethyl 2-{[5-(2-methoxypyridin-4-yl)-2,3-dihydro-1H-inden-4-yl]amino}-5-(1,2-oxazol-3-yl)-4,5-dihydro-1,3-oxazole-5-carboxylate] | < 1 µM | –
COc1cc(-c2cc(F)c3c(c2NC2=NCC(C(=O)O)(c4ccon4)O2)CCC3)ccn1 (stereo not shown) [Example 26, 2-((7-fluoro-5-(2-methoxypyridin-4-yl)-2,3-dihydro-1H-inden-4-yl)amino)-5-(isoxazol-3-yl)-4,5-dihydrooxazole-5-carboxylic acid] | 1 to 10 µM | –
